Measured values from patent US7868013B2, “Cycloalkyl substituted pyrimidinediamine compounds and their uses” (Rigel Pharmaceuticals, Inc., priority 2004, dated 2011).
Where a name gives a salt, the structure may show the parent alone. Read-outs that look alike come from different tables or passages of the source.

Columns and labels:
[1] = system: H1299 (non-small cell lung carcinoma); experiment: In vitro antiproliferation assay, H1299 cells (TABLE 1 6 point assay; TABLE 2); format: cell-based
Procedure: (§1) Certain compounds were tested against other cell types for their ability to inhibit proliferation in standard antiproliferation assays.

[2] = system: A549 (lung carcinoma); experiment: In vitro antiproliferation assay, A549 cells (TABLE 1 6 point assay; TABLE 2); format: cell-based
Procedure: as §1

[3] = Homo sapiens, NCI-H1299, H1299 cells, 6 point assay, read-out: H1299, 6pt (IC50, inhibition of proliferation)
[4] = Homo sapiens, A549, A549 cells, 6 point assay, read-out: A549, 6pt (IC50, inhibition of proliferation)
[5] = Homo sapiens, NCI-H1299, 6 point assay, H1299 cells, read-out: IC50, H1299 cells
[6] = Homo sapiens, A549, 6 point assay, A549 cells, read-out: IC50, A549 cells

Row | IC50 [1, 3] | IC50 [2, 4] | IC50 [1, 5] | IC50 [2, 6] | SMILES | also measured
1 | ≤ 100 nM | ≤ 100 nM |  |  | CCNC(=O)C1C2C=CC(C2)C1Nc1nc(Nc2ccc(N3CCN(C)CC3)c(C)c2)ncc1F (racemic) [compound 167, Racemic-(2-exo,3-exo)-N4-[3-(N-ethyl)aminocarbonylbicyclo[2.2.1]hept-5-en-2-yl]-5-fluoro-N2-[3-methyl-4-(4-methylpiperazin-1-yl)phenyl]-2,4-pyrimidinediamine] | 
2 | 1000 to 10000 nM | 1000 to 10000 nM |  |  | CN(C)CCN1CCc2cc(Nc3ncc(F)c(N[C@@H]4[C@H](C(N)=O)[C@H]5C=C[C@@H]4C5)n3)ccc21 [compound 187, (1S,2S,3R,4R)-N4-[3-Aminocarbonylbicyclo[2.2.1]hept-5-en-2-yl]-N2-[1-(2-dimethylaminoethyl)-2,3-dihydroindol-5-yl]-5-fluoro-2,4-pyrimidinediamine] | 
3 | ≤ 100 nM | ≤ 100 nM |  |  | CN(C)CCN1CCc2cc(Nc3ncc(F)c(N[C@H]4[C@@H](C(N)=O)[C@@H]5C=C[C@H]4C5)n3)ccc21 [compound 186, (1R,2R,3S,4S)-N4-[3-Aminocarbonylbicyclo[2.2.1]hept-5-en-2-yl]-N2-[1-(2-dimethylaminoethyl)-2,3-dihydroindol-5-yl]-5-fluoro-2,4-pyrimidinediamine] | 
4 |  |  | 1000 to 10000 nM | 1000 to 10000 nM | Cc1cc(Nc2ncc(F)c(N[C@@H]3CCC[C@H]3C(N)=O)n2)ccc1N1CCN(C)CC1 [15c, (1R,2R)—N4-(2-Aminocarbonylcyclopent-1-yl)-5-fluoro-N2-[4-(4-methylpiperazin-1-yl)-3-methylphenyl]-2,4-pyrimidinediamine] | 
5 |  |  |  |  | Cc1cc(Nc2ncc(F)c(NC3C4C=CC(C4)C3C(N)=O)n2)ccc1O (racemic) [compound 277, Racemic-(2-exo,3-exo)-N4-(3-aminocarbonylbicyclo[2.2.1]hept-5-en-2-yl)-5-fluoro-N2-(4-hydroxy-3-methylphenyl)-2,4-pyrimidinediamine Bis- Hydrochloride Salt] | IC50 ([1]; 6 point assay, H1299 cells, read-out: IC50, H1299 cells): ≤ 100 nM; IC50 ([2]; 6 point assay, A549 cells, read-out: IC50, A549 cells): ≤ 100 nM
6 |  |  | 100 to 1000 nM | 100 to 1000 nM | CNC(=O)c1cc(Nc2ncc(F)c(NC3C4C=CC(C4)C3C(N)=O)n2)ccc1N1CCN(C)CC1 (racemic) [compound 255, Racemic-(2-exo,3-exo)-N4-(3-aminocarbonylbicyclo[2.2.1]hept-5-en-2-yl)-5-fluoro-N2-[3-methylaminocarbonyl-4-(4-methylpiperazin-1-yl)phenyl]-2,4-pyrimidinediamine] | 
7 |  |  | > 10000 nM | > 10000 nM | Cc1cc(Nc2ncc(F)c(NC3(C(=O)O)CCCC3)n2)ccc1N1CCN(C)CC1 [compound 246, N4-(1-Carboxycyclopent-1-yl)-5-fluoro-N2-[3-methyl-4-(4-methylpiperazin-1-yl)phenyl]-2,4-pyrimidinediamine] | 
8 |  |  | 100 to 1000 nM | 100 to 1000 nM | CN1CCN(c2ccc(Nc3ncc(F)c(NC4C5C=CC(C5)C4C(N)=O)n3)cc2C(N)=O)CC1 (racemic) [compound 260, Racemic-(2-exo,3-exo)-N2-[3-aminocarbonyl-4-(4-methylpiperazin-1-yl)phenyl]-N4-(3-aminocarbonylbicyclo[2.2.1]hept-5-en-2-yl)-5-fluoro-2,4-pyrimidinediamine] | 
9 | 1000 to 10000 nM | 1000 to 10000 nM |  |  | Cc1cc(Nc2ncc(F)c(N[C@H]3CCC[C@H]3C(N)=O)n2)ccc1N1CCNCC1 (racemic) [compound 107, Racemic-cis-N4-(2-amino-carbonylcyclopent-1-yl)-5-fluoro-N2-[3-methyl-4-(piperazin-1-yl)phenyl]-2,4-pyrimidinediamine] | 
10 |  |  | ≤ 100 nM | ≤ 100 nM | CN1CCN(c2ccc(Nc3ncc(F)c(NC4C5C=CC(C5)C4C(N)=O)n3)cc2Cl)CC1 (racemic) [compound 233, Racemic-(2-exo,3-exo)-N4-(3-aminocarbonylbicyclo[2.2.1]hept-5-en-2-yl)-N2-[3-chloro-4-(4-methylpiperazin-1-yl)phenyl]-5-fluoro-2,4-pyrimidinediamine] | 
11 |  |  | 1000 to 10000 nM | 1000 to 10000 nM | CN1CCN(C(=O)CCc2ccc(Nc3ncc(F)c(N[C@H]4CCC[C@H]4C(N)=O)n3)cc2)CC1 (racemic) [compound 280, Racemic-cis-N4-(2-aminocarbonylcyclopent-1-yl)-5-fluoro-N2-{4-[(4-methylpiperazin-1-yl)-propan-1-one-3-yl]}phenyl-2,4-pyrimidinediamine] | 
12 |  |  | ≤ 100 nM | ≤ 100 nM | NC(=O)C1C2C=CC(C2)C1Nc1nc(Nc2cccc(C3CCNCC3)c2)ncc1F (racemic) [compound 267, Racemic-(2-exo,3-exo)-N4-(3-aminocarbonylbicyclo[2.2.1]hept-5-en-2-yl)-5-fluoro-N2-[3-(piperidin-4-yl)phenyl]-2,4-pyrimidinediamine] | 
13 | 1000 to 10000 nM | 1000 to 10000 nM |  |  | Cc1cc(Nc2ncc(F)c(N[C@H]3[C@@H](C(N)=O)[C@H]4C=C[C@@H]3C4)n2)ccc1N1CCN(C)CC1 [compound 155, (1S,2R,3S,4R)-N4-(3-Aminocarbonylbicyclo[2.2.1]hept-5-en-2-yl)-5-fluoro-N2-[3-methyl-4-(4-methylpiperazin-1-yl)phenyl]-2,4-pyrimidinediamine] | 
14 |  |  | 1000 to 10000 nM | 1000 to 10000 nM | CNC(=O)c1cc(Nc2ncc(F)c(NC3C4C=CC(C4)C3C(=O)OC)n2)ccc1N1CCN(C)CC1 (racemic) [compound 254, Racemic-(2-exo,3-exo)-5-fluoro-N4-(3-methoxycarbonylbicyclo [2.2.1]hept-5-en-2-yl)-N2-[3-methylaminocarbonyl-4-(4-methylpiperazin-1-yl)phenyl]-2,4-pyrimidinediamine] | 
15 |  |  | ≤ 100 nM | ≤ 100 nM | CN1CCC(c2cccc(Nc3ncc(F)c(NC4C5C=CC(C5)C4C(N)=O)n3)c2)CC1 (racemic) [compound 268, Racemic-(2-exo,3-exo)-N4-(3-aminocarbonylbicyclo[2.2.1]hept-5-en-2-yl)-5-fluoro-N2-[3-(1-methylpiperidin-4-yl)phenyl]-2,4-pyrimidinediamine] | 
16 | 1000 to 10000 nM | 1000 to 10000 nM |  |  | NC(=O)[C@@H]1CCC[C@@H]1Nc1nc(Nc2ccc3c(c2)CCN3)ncc1F (racemic) [compound 157, Racemic-cis-N4-(2-aminocarbonylcyclopent-1-yl)-N2-(2,3-dihydroindol-5-yl)-5-fluoro-2,4-pyrimidinediamine] | 
17 |  |  | ≤ 100 nM | ≤ 100 nM | COCc1cc(Nc2ncc(F)c(NC3C4C=CC(C4)C3C(N)=O)n2)ccc1N1CCN(C)CC1 (racemic) [compound 235, Racemic-(2-exo,3-exo)-N4-(3-aminocarbonylbicyclo[2.2.1]hept-5-en-2-yl)-5-fluoro-N2-[3-methoxymethyl-4-(4-methylpiperazin-1-yl)phenyl)-2,4-pyrimidinediamine] | 
18 |  |  | 1000 to 10000 nM | 100 to 1000 nM | CCOC(=O)N1CCN(c2cccc(Nc3ncc(F)c(NC4CCCC4C(N)=O)n3)c2)CC1 (centres unmarked) [compound 201, N4-(2-Carboxamidocyclopentyl)-N2-[3-(4-ethoxycarbonylpiperazino)phenyl]-5-fluoro-2,4-pyrimidinediamine] | 
19 | ≤ 100 nM | ≤ 100 nM |  |  | CN(C)CCN1CCc2cc(Nc3ncc(F)c(NC4C5C=CC(C5)C4C(=O)NC4CCC4)n3)ccc21 (racemic) [compound 176, Racemic-(2-exo,3-exo)-N4-[3-cyclobutylaminocarbonylbicyclo[2.2.1]hept-5-en-2-yl)-N2-[1-(2-dimethylaminoethyl)-2,3-dihydroindol-5-yl]-5-fluoro-2,4-pyrimidinediamine] | 
20 | ≤ 100 nM | ≤ 100 nM |  |  | Cc1cc(Nc2ncc(F)c(NC3C4C=CC(C4)C3C(N)=O)n2)ccc1N1CCN(CCO)CC1 (racemic) [compound 111] | 
21 |  |  | > 10000 nM | > 10000 nM | Cc1cc(Nc2ncc(F)c(N[C@H]3CCC[C@@H]3C(N)=O)n2)ccc1N1CCN(C)CC1 [15d, (1S,2S)—N4-(2-Aminocarbonylcyclopent-1-yl)-5-fluoro-N2-[4-(4-methylpiperazin-1-yl)-3-methylphenyl]-2,4-pyrimidinediamine] | 
22 |  |  | 1000 to 10000 nM | 1000 to 10000 nM | Cc1cc(Nc2ncc(F)c(N[C@H]3CCC[C@H]3C(N)=O)n2)ccc1N1CCCC1 (racemic) [Compound 287, Racemic-cis-N4-(2-aminocarbonylcyclopent-1-yl)-5-fluoro-N2-[3-methyl-4-(pyrrolidino)phenyl]-2,4-pyrimidinediamine] | 
23 |  |  | ≤ 100 nM | ≤ 100 nM | CCN1CCN(c2ccc(Nc3ncc(F)c(NC4C5C=CC(C5)C4C(N)=O)n3)cc2C)CC1 (racemic) [compound 241, Racemic-(2-exo,3-exo)-N4-(3-aminocarbonylbicyclo[2.2.1]hept-5-en-2-yl)-N2-[4-(4-ethylpiperazin-1-yl)-3-methylphenyl]-5-fluoro-2,4-pyrimidinediamine] | 
24 | ≤ 100 nM | ≤ 100 nM |  |  | Cc1cc(Nc2ncc(F)c(N[C@H]3[C@@H](C(N)=O)[C@@H]4C=C[C@H]3C4)n2)ccc1OC1CCN(C)CC1 [compound 150, (1R,2R,3S,4S)-N4-(3-Aminocarbonylbicyclo[2.2.1]hept-5-en-2-yl)-5-fluoro-N2-[3-methyl-4-(1-methylpiperidin-4-yloxy)phenyl]-2,4-pyrimidinediamine] | 

Row | SMILES | IC50 [1, 3] | IC50 [2, 4] | IC50 [1, 5] | IC50 [2, 6] | also measured
25 | CN1CCN(C(=O)Cc2ccc(Nc3ncc(F)c(N[C@H]4CCC[C@H]4C(N)=O)n3)cc2)CC1 (racemic) [compound 279, Racemic-cis-N4-(2-aminocarbonylcyclopent-1-yl)-5-fluoro-N2-{4-[(4-methylpiperazin-1-yl)-ethan-1-one-2-yl]phenyl}-2,4-pyrimidinediamine] |  |  | 1000 to 10000 nM | 1000 to 10000 nM | 
